Experimental data published in patent publication US11291655B2, “RAD51 inhibitors” (Cyteir Therapeutics, Inc., priority 2017, dated 2022).

system: Daudi Cell Culture; assay: Compound primary screening in Daudi cell culture; type: cell-based; conditions: Homo sapiens, 168 h; Daudi cells, 1250 cells per well, reads on Day 7
Experimental: Compound Primary Screening
1. Materials and Supplies
Plastic ware and consumables needed for this experiment include: Cell Culture media; Evaporation Buffer media; 100% DMSO; 96 well U-bottom sterile culture plates; 250 mL bottle; 1.5 mL Opaque amber epi tubes; Epi Tube rack; 300 mL reservoirs; 25 mL reservoir; 25 mL serological pipette tips; 5 mL serological pipette tips P1000 Pipette Tips; and P200 Pipette Tips.
Equipment needed for this experiment include: Viaflo 384 liquid handler; Eppendorf serological pipette; Eppendorf P1000 Pipette; and Eppendorf P200 Pipette
Daudi Cell Culture is also needed for this experiment.
Lastly, compounds (e.g., the compounds of this invention) to be tested are needed.
All steps were performed in a sterile environment inside the Biosafety cabinet.
A 96 well u-bottom plate was prepared by writing the experiment number, plate number, date and initials in the top right corner of the plate lid. With a sterile 300 ml reservoir, and 25 ml serological pipette, evaporation buffer media was pipetted into reservoir in 25 ml increments. Using the liquid handler, 150 ul of evaporation buffer media was pipetted from reservoir into rows A and H, and Columns 1 and 12 of the 96 well u-bottom plate. Cell cultures were counted to obtain the density of cells per ml, and the culture viability. The cell density information was used to obtain 1,000,000 cells from culture using a 5 mL serological pipette into an epi tube. The cell density information from the culture was used to calculate the number of cells and volume of media needed for the assay to seed 1250 cells in 130 ul of media per available culture well in the 96 well u-bottom plate. Rows B through F were used for cells (50 wells in total), with row G left for an empty media control. The calculation was overestimated by 10 mL to account for the dead volume in the 300 ml reservoir. Once the media volume was calculated, the appropriate volume of media was pipetted in 25 mL increments into the 250 mL bottle using a 25 mL serological pipette. The 250 ml bottle was capped tightly, and placed into a 37° C. water bath for 2 minutes. While the culture media was warming, 10 mL of fresh media was pipetted from the 500 mL culture media bottle into a sterile 25 mL reservoir. Using the Eppendorf multichannel pipette, 130 ul of media was pipetted from the 25 mL reservoir into row G of the 96 well u-bottom plate. Once the 250 mL bottle of media was warmed, the volume of culture needed was pipetted into the bottle, and mixed gently with a 25 mL serological pipette as to not create bubbles, and then the contents of the bottle were pipetted into a new 300 mL reservoir. Using the liquid handler, 130 ul of culture was pipetted from the 300 mL reservoir into rows B through F of the 96 well u-bottom plate. Once the culture was added, the plate was placed into a 37° C. incubator until the compound master plate was prepared for use.
Two 96 well u-bottom plates were prepared by writing the master plate name in the upper right corner of the plate lid. Labeling one DMSO master and the other Media Master. The compounds of interest were obtained from the laboratory freezer, and placed into a 25 well storage box with a lid, and set the box aside. The compounds were vortexed after thawing but before use. Using an automatic multichannel pipette, 20 ul of 100% DMSO was pipetted into wells B3-B11 through G3-G11 of the DMSO master plate. For each compound on the master plate, 50 ul of the compound were pipetted in the appropriate well of row 2 (reference plate map to determine appropriate well). A serial dilution was prepared beginning by aspirating 20 ul from row 2 and mixing with row 3, repeating until row 11 was reached. Using the liquid handler, 194 ul of Daudi media was dispensed into wells B2-B11 through G2-G11 of the Media master plate. Using the liquid handler, 6 ul from the DMSO master plate was aspirated and dispensed into the media master plate, mixing 100 ul twice. […]

SMILES	EC50 [µM]
CC(C)OC(=O)Nc1ccc(-c2ncc(-c3ccc(NC(=O)NCc4ccccc4)cc3S(=O)(=O)NC(C)(C)C)s2)cc1 [Compound A2]	< 1
CC(=O)Nc1ccc(-c2cnc(-c3ccc(NC(=S)NC(C)C)cc3)s2)c(S(=O)(=O)N2CCNCC2)c1 [Compound A3]	< 5
CC(=O)Nc1ccc(-c2cnc(-c3ccc(N)cc3)s2)c(S(=O)(=O)NC(C)(C)C)c1 [Compound A4]	< 10
CC(=O)Nc1ccc(-c2cnc(-c3ccc(OC(=O)NC(C)C)cc3)s2)c(S(=O)(=O)NC(C)(C)C)c1 [Compound A5]	< 5
CC(C)OC(=O)Nc1ccc(-c2ncc(-c3ccc(-c4cnc[nH]4)cc3S(=O)(=O)NC(C)(C)C)s2)cc1 [Compound A6]	< 5
CC(C)N(C)C(=O)Nc1ccc(-c2ncc(-c3ccc(N4CCCC4=O)cc3S(=O)(=O)NC(C)(C)C)s2)cc1 [Compound A7]	< 10
CC(C)OC(=O)Nc1ccc(-c2ncc(-c3ccc(NC(=O)OCCO)cc3S(=O)(=O)NC(C)(C)C)s2)cc1 [Compound B1]	< 5
COCCOC(=O)Nc1ccc(-c2cnc(-c3ccc(NC(=O)OC(C)C)cc3)s2)c(S(=O)(=O)NC(C)(C)C)c1 [Compound B2]	< 1
CC(C)OC(=O)Nc1ccc(-c2ncc(-c3ccc(NC(=O)OCc4ccccn4)cc3S(=O)(=O)NC(C)(C)C)s2)cc1 [Compound B3]	< 1
CC(C)OC(=O)Nc1ccc(-c2ncc(-c3ccc(NC(=O)OCc4ccncc4)cc3S(=O)(=O)NC(C)(C)C)s2)cc1 [Compound B4]	< 1
C=C(C)COC(=O)Nc1ccc(-c2cnc(-c3ccc(NC(=O)OC(C)C)cc3)s2)c(S(=O)(=O)NC(C)(C)C)c1 [Compound B5]	< 1
CC(C)OC(=O)Nc1ccc(-c2ncc(-c3ccc(NC(=O)CCc4ccccc4)cc3S(=O)(=O)NC(C)(C)C)s2)cc1 [Compound B6]	< 1
CC(C)OC(=O)Nc1ccc(-c2ncc(-c3ccc(NC(=O)OCC4CCCN4)cc3S(=O)(=O)NC(C)(C)C)s2)cc1 (stereo not drawn) [Compound B7]	< 5
CC(C)OC(=O)Nc1ccc(-c2ncc(-c3ccc(NC(=O)OCCc4ccccc4)cc3S(=O)(=O)NC(C)(C)C)s2)cc1 [Compound B8]	< 1
CC(C)OC(=O)Nc1ccc(-c2ncc(-c3ccc(NC(=O)OCc4cccnc4)cc3S(=O)(=O)NC(C)(C)C)s2)cc1 [Compound B9]	< 1
CC(C)OC(=O)Nc1ccc(-c2ncc(-c3ccc(NC(=O)OCC4CCCCC4)cc3S(=O)(=O)NC(C)(C)C)s2)cc1 [Compound B10]	< 1
CC(C)OC(=O)Nc1ccc(-c2ncc(-c3ccc(NC(=O)OCc4nccs4)cc3S(=O)(=O)NC(C)(C)C)s2)cc1 [Compound B11]	< 1
C/C=C/COC(=O)Nc1ccc(-c2cnc(-c3ccc(NC(=O)OC(C)C)cc3)s2)c(S(=O)(=O)NC(C)(C)C)c1 [Compound B12]	< 1
CC(C)OC(=O)Nc1ccc(-c2ncc(-c3ccc(NC(=O)OCCN)cc3S(=O)(=O)NC(C)(C)C)s2)cc1 [Compound B13]	< 5
CC(C)OC(=O)Nc1ccc(-c2ncc(-c3ccc(NC(=O)OCc4ncc[nH]4)cc3S(=O)(=O)NC(C)(C)C)s2)cc1 [Compound B14]	< 10
CC(C)OC(=O)Nc1ccc(-c2ncc(-c3ccc(NC(=O)OC(C)c4ccccc4)cc3S(=O)(=O)NC(C)(C)C)s2)cc1 (stereo not drawn) [Compound B15]	< 1
CC(C)OC(=O)Nc1ccc(-c2ncc(-c3ccc(NC(=O)NC(C)c4ccccc4)cc3S(=O)(=O)NC(C)(C)C)s2)cc1 (stereo not drawn) [Compound C1]	< 1
COC(=O)[C@H](Cc1ccccc1)NS(=O)(=O)c1cc(NC(C)=O)ccc1-c1cnc(-c2ccc(NC(=S)NC(C)C)cc2)s1 [Compound D1]	> 10
COC(=O)[C@@H](NS(=O)(=O)c1cc(NC(C)=O)ccc1-c1cnc(-c2ccc(NC(=S)NC(C)C)cc2)s1)C(C)C [Compound D2]	> 10
CC(=O)Nc1ccc(-c2cnc(-c3ccc(NC(=S)NC(C)C)cc3)s2)c(S(=O)(=O)NCc2ccccn2)c1 [Compound D3]	> 10
CC(=O)Nc1ccc(-c2cnc(-c3ccc(NC(=S)NC(C)C)cc3)s2)c(S(=O)(=O)NCC(C)(C)CO)c1 [Compound D4]	> 10

SMILES	EC50 [µM]
CC(=O)Nc1ccc(-c2cnc(-c3ccc(NC(=S)NC(C)C)cc3)s2)c(S(=O)(=O)N[C@@H](C)CO)c1 [Compound D5]	> 10
CNS(=O)(=O)c1cc(NC(C)=O)ccc1-c1cnc(-c2ccc(NC(=S)NC(C)C)cc2)s1 [Compound D6]	> 10
CC(=O)Nc1ccc(-c2cnc(-c3ccc(NC(=S)NC(C)C)cc3)s2)c(S(=O)(=O)N[C@H]2CC[C@H](O)CC2)c1 [Compound D7]	> 10
CC(=O)Nc1ccc(-c2cnc(-c3ccc(NC(=S)NC(C)C)cc3)s2)c(S(=O)(=O)N2CCOCC2)c1 [Compound D8]	> 10
CCNS(=O)(=O)c1cc(NC(C)=O)ccc1-c1cnc(-c2ccc(NC(=S)NC(C)C)cc2)s1 [Compound D9]	> 10
CC(=O)Nc1ccc(-c2cnc(-c3ccc(NC(=S)NC(C)C)cc3)s2)c(S(=O)(=O)N(C)C)c1 [Compound D10]	< 1
CC(=O)Nc1ccc(-c2cnc(-c3ccc(NC(=S)NC(C)C)cc3)s2)c(S(=O)(=O)NC(CO)CO)c1 [Compound D11]	> 10
CC(=O)Nc1ccc(-c2cnc(-c3ccc(NC(=S)NC(C)C)cc3)s2)c(S(=O)(=O)NCc2ccncc2)c1 [Compound D12]	> 10
CC(=O)Nc1ccc(-c2cnc(-c3ccc(NC(=S)NC(C)C)cc3)s2)c(S(=O)(=O)N2CCCC2)c1 [Compound D13]	> 10
CC(=O)Nc1ccc(-c2cnc(-c3ccc(NC(=S)NC(C)C)cc3)s2)c(S(=O)(=O)N2CCCCC2)c1 [Compound D14]	> 10
COC(=O)[C@H](CO)NS(=O)(=O)c1cc(NC(C)=O)ccc1-c1cnc(-c2ccc(NC(=S)NC(C)C)cc2)s1 [Compound D15]	> 10
CC(=O)Nc1ccc(-c2cnc(-c3ccc(NC(=S)NC(C)C)cc3)s2)c(S(=O)(=O)NCCN(C)C)c1 [Compound D16]	> 10
CC(=O)Nc1ccc(-c2cnc(-c3ccc(NC(=S)NC(C)C)cc3)s2)c(S(=O)(=O)NCCN)c1 [Compound D17]	> 10
CC(=O)Nc1ccc(-c2cnc(-c3ccc(NC(=S)NC(C)C)cc3)s2)c(S(=O)(=O)N[C@H](CO)C(C)C)c1 [Compound D18]	> 10
CC(=O)Nc1ccc(-c2cnc(-c3ccc(NC(=S)NC(C)C)cc3)s2)c(S(=O)(=O)NCc2ccccc2)c1 [Compound D19]	> 10
COC(=O)CNS(=O)(=O)c1cc(NC(C)=O)ccc1-c1cnc(-c2ccc(NC(=S)NC(C)C)cc2)s1 [Compound D20]	> 10
COC(=O)[C@H](C)NS(=O)(=O)c1cc(NC(C)=O)ccc1-c1cnc(-c2ccc(NC(=S)NC(C)C)cc2)s1 [Compound D21]	> 10
CC(=O)Nc1ccc(-c2cnc(-c3ccc(NC(=S)NC(C)C)cc3)s2)c(S(=O)(=O)N2C3CCC2CC3)c1 [Compound D22]	< 1
CNCCCNS(=O)(=O)c1cc(NC(C)=O)ccc1-c1cnc(-c2ccc(NC(=S)NC(C)C)cc2)s1 [Compound D23]	> 10
CC(=O)Nc1ccc(-c2cnc(-c3ccc(NC(=S)NC(C)C)cc3)s2)c(S(=O)(=O)NCCCN)c1 [Compound D24]	> 10
CC(=O)Nc1ccc(-c2cnc(-c3ccc(NC(=S)NC(C)C)cc3)s2)c(S(=O)(=O)NCCCN(C)C)c1 [Compound D25]	< 1
CC(=O)Nc1ccc(-c2cnc(-c3ccc(NC(=S)NC(C)C)cc3)s2)c(S(=O)(=O)NCCOCCO)c1 [Compound D26]	> 10
COCCNS(=O)(=O)c1cc(NC(C)=O)ccc1-c1cnc(-c2ccc(NC(=S)NC(C)C)cc2)s1 [Compound D27]	> 10
CC(=O)Nc1ccc(-c2cnc(-c3ccc(NC(=S)NC(C)C)cc3)s2)c(S(=O)(=O)NCCO)c1 [Compound D28]	> 10
CNCCNS(=O)(=O)c1cc(NC(C)=O)ccc1-c1cnc(-c2ccc(NC(=S)NC(C)C)cc2)s1 [Compound D29]	> 10
